Source: US20240219403A1, “METHODS FOR INHIBITING KRAS ONCOPROTEIN THROUGH ENHANCED GTPASE ACTIVITY” (Memorial Sloan-Kettering Cancer Center, priority 2021, published 2024)

Key:
KRAS^G12C [1] = target: T1, KRAS^G12C (Homo sapiens, UniProt P01116, G12C); assay: RAS-binding domain (RBD) pulldown of active (GTP-bound) KRAS in KRAS^G12C-mutant cell lines treated with G12C inhibitors; format: cell-based
T1 construct: endogenous in cells; host or cells: H358, H2122, H2030, SW1573 (KRAS G12C-mutant lung cancer lines, ATCC)
Description: This was performed as described previously (42) by using the RAS activation kit (Thermo Scientific). Briefly, 50 μg whole cell lysates were incubated with 40 μg GST-RBD and 100 μL glutathione beads for 60 min followed by three washes in NP40 wash buffer and elution of pull-down fractions with 2×SDS PAGE loading dye. The samples were then subjected to western blotting with a KRAS specific (WH0003845M1) antibody (43).

KRAS^G12C [2] = target: T1, KRAS^G12C; assay: GTPase assays of purified GTP-loaded KRAS^G12C incubated with GAP proteins (γ-phosphate, α-phosphate, continuous phosphate release); format: biochemical
Description: GTP[γ^32P] hydrolysis assay. KRAS proteins (0.5 μg) were reacted with 0.04 μM GTP[γ^32P] (6000 Ci/mmol; PerkinElmer Life Sciences) in 100 μL loading buffer (50 mM HEPES, pH 7.5, 50 mM NaCl, 1 mM DTT, 0.1 mM EGTA, 10 mM EDTA, and 1 mg/mL BSA) for 10 min at 30° C. (5, 40). Loading reactions were stopped by placing on ice and adding MgCl2 to a final concentration of 20 mM. The GTPase assays were performed at 30° C. in 100 μL mixtures containing 20 nM of loaded KRAS and either hydrolysis buffer (25 mM HEPES pH 7.5, 50 mM NaCl, 1 mM DTT, 1 mM MgCl2 and 1 mg/mL BSA) alone, or in combination with WCE or purified RGS3 (0.08-0.4 μg/μL). Equimolar comparisons of NF1, RASA1 and RGS3 were carried out using the continuous hydrolysis assay (see below). Reactions were stopped at the indicated time by filtering through 0.45-μm nitrocellulose membrane filters. The filters were washed 3 times with 0.2 mL of ice-cold hydrolysis buffer, air dried, and processed by autoradiography. Reaction rates were determined by fitting an exponential curve to the data, which was normalized to the baseline value. […]
Continuous hydrolysis assay (two-step detection of inorganic phosphate). […] The reaction was monitored by reading the absorbance at 360 nm every 10 to 20 s for ˜16-60 min at room temperature. […]

Compound: C=CC(=O)N1CCN(c2nc(OC[C@@H]3CCCN3C)nc3c2CCN(c2cccc4cccc(C)c24)C3)C[C@@H]1CC#N [MRTX1257]
- time required for maximal inhibition of KRAS in cells (KRAS^G12C [1]; media with 10% serum): ~60 min
- time required for maximal inhibition of KRAS in cells (KRAS^G12C [1]; serum-deprived media (suppresses nucleotide exchange)): ~20 min

Compound: RGS3: regulator of G protein signaling 3, recombinant p75/p25 variants; GAP for Gαi/q subunit
- RGS3-assisted hydrolysis by KRAS^G12C slower than NF1-stimulated hydrolysis by KRAS^WT (KRAS^G12C [2]): 1-2 orders of magnitude
- effect on GTP-hydrolysis by KRAS^G12C (KRAS^G12C [2]; purified proteins): enhanced GTP-hydrolysis
